The record followed here is patent US20250186486A1, “POTENTIATION OF DURABLE ANTITUMOR IMMUNITY BY MULTIFACTORIAL IMMUNE MODULATION” (BAYLOR COLLEGE OF MEDICINE, priority 2022, published 2025).

The test system of test [1] is 4T-1 TNBC cells. Nature of the test: Subcutaneous 4T-1 TNBC tumor model, intratumoral injection; tumor growth by caliper/IVIS, survival. The format is in vivo, Balb/c mice. As to conditions: 4T-1 s.c.; for impact on tumor growth: injected intratumorally on day 12, caliper (FIGS. 7, 8). The source says:
Mice. 6-10 week old female Balb/c mice or C57BL/6 animals of both sexes were procured from Baylor College of Medicine or Jackson Laboratories (Bar Harbor, ME). Th-MYCN mice in the 129X1/SvJ background were a kind gift from Dr. William Weiss (UCSF, San Francisco, CA) and were bred in house. All mice were maintained in accordance with the specific IACUC requirements of Baylor College of Medicine and in accordance with animal protocol AN-8375.
Tumor Implantation and Measurements. 500,000 4T-1 TNBC cells (+/−luc2 transduction) were subcutaneously injected onto the hind quarters/back of each mouse and allowed time to reach palpation (approximately 50-100 mm^3) before treatment. For orthotopic 4T-1 experiments, 500,000 4T-1 cells were implanted in the mammary fat pad according to the method of Zhang et al.^34 Following establishment of tumors, experimental cohorts were assembled by means of stratified randomization. Attempts were made to minimize confounding variables such as order of cohort treatment, order of tumor measurement, and cage location by means of simple randomization. Tumors were treated with either the indicated antitumor regimen or vehicle control and measured by IVIS imaging (if applicable) or calculated by caliper measurement. 100,000 MOC-2 HNSCC cells were subcutaneously injected onto the hind quarters/back of each mouse and allowed to become palpable (approximately 50-100 mm^3) before treatment. Tumor size and progression were determined by caliper measurement. Single cell suspensions were generated from Th-MYCN tumors according to the method of Kroesen et al.^12 Suspensions were subcutaneously injected onto the hind quarters/back of each mouse and allowed time to reach palpation (approximately 50-100 mm^3) before treatment. Tumor size and progression were determined by caliper measurement. Tumor volumes were calculated by measuring in two dimensions according to the formula (longest length^2)×shortest length.
IVIS Imaging. Post tumor implantation, mice were injected with […] of 10 mg/ml D-Luciferin (Regis Technologies, Morton Grove, IL), incubated for 7 min and bio-luminescence was measured with the IVIS imaging system (Caliper Life Sciences, Waltham, MA) following a 60 second exposure. Imaging was performed at 2-4 day intervals.
Antitumor reagents. For optimization in the TNBC model, all reagents were dissolved in either DMSO or sterile water based on solubility requirements and included Copper(II) diethyldithiocarbamate at 85 μg/50 μl (VWR, Radnor, PA), 2-Cl-IB-MECA at 20 μg/50 μl (Millipore, Burlington, MA), DMXAA at […]/50 μl (R&D Systems, Minneapolis, MN), 5′ppp-dsRNA/Lyovec at 375 ng/50 μl (Invivogen, San Diego, CA), R848 at 15 μg/50 μl (Invivogen), galunisertib at […]/50 μl (Selleckchem, Houston, TX), epcadostat at […]/50 μl (Selleckchem), N^w-Hydroxy-nor-L-arginine at 6 μg/50 μl (Sigma-Aldrich, St. Louis, MO), L-NMMA at 100 ng/50 μl (Abcam, Boston, MA), clodronate at […]/50 μl (Abcam), and 4-1BB ligand at 1 μg/50 μl (NovusBio). Combinatorial treatments were reconstituted as a 10× stock, combined as necessary, and diluted to a 1× concentration with the appropriate diluent. Treatments were intratumorally injected with a 28 gauge needle as a 50 μl bolus. […]
Statistical Analysis. Significance of differences, unless stated otherwise, was determined by one-way analysis of variance (ANOVA) using Tukey's honestly significant difference (HSD) post hoc test. […]

In test [2] the test system is 4T-1 luc-2+ cells. The test is described as follows: Orthotopic 4T-1 TNBC model (mammary fat pad), intratumoral treatment, IVIS. The test is classed as in vivo, Balb/c mice. As to conditions: 4T-1 luc-2+ in mammary fat pad, intratumoral treatment from day 7. As for the experimental part: Lastly, the boosting regimen was combined together with regimen 16 and performed a dose response analysis at 1×, 0.5×, 0.125×, 0.0625×, and 0.03125× concentrations. […] Similar to the experiment outlined in FIGS. 1C-D, this experiment was performed with the 4T-1 luc2^neg parent cell line to validate that protective immune responses were not dependent upon the presence of xenogeneic luciferase. The treatment model was next validated in the orthotopic setting (Zhang et al., 2019). In this series of experiments, 500,000 4T-1 luc-2^+ cells were implanted under the fourth nipple of the mammary fat pad. […]
Tumor Implantation and Measurements. […] Tumors were treated with either the indicated antitumor regimen or vehicle control and measured by IVIS imaging (if applicable) or calculated by caliper measurement. […] Tumor size and progression were determined by caliper measurement. […] Tumor size and progression were determined by caliper measurement. Tumor volumes were calculated by measuring in two dimensions according to the formula (longest length^2)×shortest length.
IVIS Imaging. Post tumor implantation, mice were injected with […] of 10 mg/ml D-Luciferin (Regis Technologies, Morton Grove, IL), incubated for 7 min and bio-luminescence was measured with the IVIS imaging system (Caliper Life Sciences, Waltham, MA) following a 60 second exposure. […]

On to “4-1BBL: 4-1BB ligand (NovusBio), 4-1BB agonist”, for which, in test [1] (FIG. 8), the “effect of presence of 4-1BBL on anti-tumor effects of the TLR, STING and RLR agents” value is listed as “antagonized the anti-tumor effects”.

Take `CC(=O)O.CNC(=N)NCCC[C@H](N)C(=O)O` [L-NMMA, L-NG-monomethyl arginine acetate]: the “impact on tumor growth” value in test [1] is on record as “no beneficial impact on tumor growth”.

As for `N=C(NO)NCC[C@H](N)C(=O)O` [No-hydroxy-nor-L-arginine], in test [1], the “impact on tumor growth” value is “no beneficial impact on tumor growth”.

Take `O=P(O)(O)C(Cl)(Cl)P(=O)(O)O` [clodronate]: the “impact on tumor growth” value in test [1] was “no beneficial impact on tumor growth”.

For `NS(=O)(=O)NCCNc1nonc1C(=NO)Nc1ccc(F)c(Br)c1` [epacadostat], the “impact on tumor growth” value in test [1] is recorded as “no beneficial impact on tumor growth”.

Consider `Cc1cccc(-c2nn3c(c2-c2ccnc4ccc(C(N)=O)cc24)CCC3)n1` [galunersitib, galunisertib], for which the “tumor growth in the orthotopic setting” value in test [2] is given as “no impact on tumor growth”.
